Data taken from ChEMBL document CHEMBL3132789, “Effect of the 4-substituted phenylalanine moiety of sansalvamide A peptide on antitumor activity” (Medchemcomm, 2014).
In brackets after ≈: the same amount, converted by molar mass. Activity calls are given as the source filed them. The rule behind the calls is not given here. Square brackets hold non-standard residues; d marks the D form. Peptide text beside a SMILES is read from it. Phe(4-Br) = N[C@@H](Cc1ccc(Br)cc1)C(=O)O; Phe(4-Cl) = N[C@@H](Cc1ccc(Cl)cc1)C(=O)O; Phe(4-F) = N[C@@H](Cc1ccc(F)cc1)C(=O)O; Phe(4-I) = N[C@@H](Cc1ccc(I)cc1)C(=O)O; Hica(2S) = CC(C)C[C@H](O)C(=O)O

Legend:
[1] = test system: A549; assay: Cytotoxicity against human A549 cells assessed as growth inhibition at 20 ug/ml after 72 hrs by [3H]-thymidine uptake assay; assay type: functional; details: read-out: GI
[2] = test system: K562; assay: Cytotoxicity against human K562 cells assessed as growth inhibition at 20 ug/ml after 72 hrs by [3H]-thymidine uptake assay; assay type: functional; details: read-out: GI
[3] = test system: HCT-15; assay: Cytotoxicity against human HCT15 cells assessed as growth inhibition at 20 ug/ml after 72 hrs by [3H]-thymidine uptake assay; assay type: functional; details: read-out: GI
[4] = test system: HT-29; assay: Cytotoxicity against human HT-29 cells assessed as growth inhibition at 20 ug/ml after 72 hrs by [3H]-thymidine uptake assay; assay type: functional; details: read-out: GI
[5] = test system: MDA-MB-231; assay: Cytotoxicity against human MDA-MB-231 cells assessed as growth inhibition at 20 ug/ml after 72 hrs by [3H]-thymidine uptake assay; assay type: functional; details: read-out: GI
[6] = test system: HCT-116; assay: Cytotoxicity against human HCT116 cells after 72 hrs by [3H]-thymidine uptake assay; assay type: functional, cell-based
[7] = Induction of apoptosis in human VSMC cells assessed as morphological changes at 1.8 ug/ml after 24 hrs by light microscopy analysis; assay type: cell-based
[8] = test system: HeLa; assay: Induction of apoptosis in human HeLa cells assessed as decrease in cell density at 1.8 ug/ml after 24 hrs by light microscopy analysis; assay type: functional, cell-based
[9] = test system: HeLa; assay: Induction of apoptosis in human HeLa cells assessed as membrane blebbing and nuclear fragmentation at 1.8 ug/ml after 24 hrs by light microscopy analysis; assay type: functional, cell-based
[10] = test system: HeLa; assay: Induction of apoptosis in human HeLa cells assessed as rounded and smaller cells at 1.8 ug/ml after 24 hrs by light microscopy analysis; assay type: functional, cell-based
[11] = test system: K562; assay: Cytotoxicity against human K562 cells after 72 hrs by [3H]-thymidine uptake assay; assay type: functional, cell-based
[12] = test system: A549; assay: Cytotoxicity against human A549 cells after 72 hrs by [3H]-thymidine uptake assay; assay type: functional, cell-based
[13] = test system: HCT-15; assay: Cytotoxicity against human HCT15 cells after 72 hrs by [3H]-thymidine uptake assay; assay type: functional, cell-based
[14] = test system: HT-29; assay: Cytotoxicity against human HT-29 cells after 72 hrs by [3H]-thymidine uptake assay; assay type: functional, cell-based
[15] = test system: HeLa; assay: Cytotoxicity against human HeLa cells after 72 hrs by [3H]-thymidine uptake assay; assay type: functional, cell-based
[16] = test system: MDA-MB-231; assay: Cytotoxicity against human MDA-MB-231 cells after 72 hrs by [3H]-thymidine uptake assay; assay type: functional, cell-based
[17] = test system: A549; assay: Cytotoxicity against human A549 cells assessed as growth inhibition at 2 ug/ml after 72 hrs by [3H]-thymidine uptake assay; assay type: functional; details: read-out: GI
[18] = test system: K562; assay: Cytotoxicity against human K562 cells assessed as growth inhibition at 2 ug/ml after 72 hrs by [3H]-thymidine uptake assay; assay type: functional; details: read-out: GI
[19] = test system: HCT-15; assay: Cytotoxicity against human HCT15 cells assessed as growth inhibition at 2 ug/ml after 72 hrs by [3H]-thymidine uptake assay; assay type: functional; details: read-out: GI
[20] = test system: HT-29; assay: Cytotoxicity against human HT-29 cells assessed as growth inhibition at 2 ug/ml after 72 hrs by [3H]-thymidine uptake assay; assay type: functional; details: read-out: GI
[21] = test system: HeLa; assay: Cytotoxicity against human HeLa cells assessed as growth inhibition at 2 ug/ml after 72 hrs by [3H]-thymidine uptake assay; assay type: functional; details: read-out: GI
[22] = test system: MDA-MB-231; assay: Cytotoxicity against human MDA-MB-231 cells assessed as growth inhibition at 2 ug/ml after 72 hrs by [3H]-thymidine uptake assay; assay type: functional; details: read-out: GI

SMILES: CC(C)C[C@@H]1NC(=O)[C@H](Cc2ccccc2)NC(=O)[C@H](CC(C)C)NC(=O)[C@H](C(C)C)NC(=O)[C@H](CC(C)C)NC1=O (cyclo(FLLVL))
- inhibition of growth at 20 µg/mL [1]: 26.6%
- inhibition of growth at 20 µg/mL [2]: 45.3%
- inhibition of growth at 20 µg/mL [3]: 23.1%
- inhibition of growth at 20 µg/mL [4]: 21.5%
- inhibition of growth at 20 µg/mL [5]: 23.6%
- IC50 [6]: 0.98 µg/mL (≈ 1.67 µM)

SMILES: CC(C)C[C@@H]1NC(=O)[C@H](C(C)C)NC(=O)[C@H](CC(C)C)OC(=O)[C@H](CC(C)C)NC(=O)[C@H](Cc2ccccc2)NC1=O (cyclo(FL[Hica(2S)]VL))
- IC50 [6]: 9.8 µg/mL (≈ 16.7 µM)

SMILES: COc1ccc(C[C@@H]2NC(=O)[C@H](CC(C)C)NC(=O)[C@H](C(C)C)NC(=O)[C@H](CC(C)C)NC(=O)[C@H](CC(C)C)NC2=O)cc1 (cyclo(LLVLY(Me)))
- Activity [7]: Non-toxic
- Activity [8]: Active
- Activity [9]: Active
- Activity [10]: Active
- IC50 [11]: 2.87 µM
- IC50 [12]: 2.41 µM
- IC50 [13]: 3.54 µM
- IC50 [14]: 3.38 µM
- IC50 [15]: 3.22 µM
- IC50 [16]: 11.1 µM
- inhibition of growth at 2 µg/mL [17]: 91.3%
- inhibition of growth at 2 µg/mL [18]: 86.5%
- inhibition of growth at 2 µg/mL [19]: 78.8%
- inhibition of growth at 2 µg/mL [20]: 76.4%
- inhibition of growth at 2 µg/mL [21]: 50.9%
- inhibition of growth at 2 µg/mL [22]: 40.5%
- inhibition of growth at 20 µg/mL [1]: 98.2%
- inhibition of growth at 20 µg/mL [2]: 93.8%
- inhibition of growth at 20 µg/mL [3]: 80.8%
- inhibition of growth at 20 µg/mL [4]: 88.5%
- inhibition of growth at 20 µg/mL [5]: 43.2%

SMILES: CC(C)C[C@@H]1NC(=O)[C@H](Cc2ccc(O)cc2)NC(=O)[C@H](CC(C)C)NC(=O)[C@H](C(C)C)NC(=O)[C@H](CC(C)C)NC1=O (cyclo(LLVLY))
- inhibition of growth at 20 µg/mL [3]: 52%
- inhibition of growth at 20 µg/mL [4]: 34.6%
- inhibition of growth at 20 µg/mL [5]: 42.5%

SMILES: CC(C)C[C@@H]1NC(=O)[C@H](Cc2ccc(Cl)cc2)NC(=O)[C@H](CC(C)C)NC(=O)[C@H](C(C)C)NC(=O)[C@H](CC(C)C)NC1=O (cyclo(LLVL[Phe(4-Cl)]))
- inhibition of growth at 20 µg/mL [1]: 5.2%
- inhibition of growth at 20 µg/mL [2]: 3.57%
- inhibition of growth at 20 µg/mL [3]: 1.21%
- inhibition of growth at 20 µg/mL [4]: 1.23%
- inhibition of growth at 20 µg/mL [5]: 15%

SMILES: CC(C)C[C@@H]1NC(=O)[C@H](Cc2ccc(F)cc2)NC(=O)[C@H](CC(C)C)NC(=O)[C@H](C(C)C)NC(=O)[C@H](CC(C)C)NC1=O (cyclo(LLVL[Phe(4-F)]))
- inhibition of growth at 20 µg/mL [1]: 30.8%
- inhibition of growth at 20 µg/mL [2]: 58.2%
- inhibition of growth at 20 µg/mL [3]: 21%
- inhibition of growth at 20 µg/mL [4]: 0%
- inhibition of growth at 20 µg/mL [5]: 12.3%

SMILES: CC(C)C[C@@H]1NC(=O)[C@H](Cc2ccc(I)cc2)NC(=O)[C@H](CC(C)C)NC(=O)[C@H](C(C)C)NC(=O)[C@H](CC(C)C)NC1=O (cyclo(LLVL[Phe(4-I)]))
- IC50 [6]: 1.12 µg/mL (≈ 1.57 µM)

SMILES: CC(C)C[C@@H]1NC(=O)[C@H](C(C)C)NC(=O)[C@H](CC(C)C)OC(=O)[C@H](CC(C)C)NC(=O)[C@H](Cc2ccc(Br)cc2)NC1=O (cyclo(L[Phe(4-Br)]L[Hica(2S)]V))
- IC50 [6]: 4.5 µg/mL (≈ 6.76 µM)

SMILES: CC(C)C[C@@H]1NC(=O)[C@H](C(C)C)NC(=O)[C@H](CC(C)C)OC(=O)[C@H](CC(C)C)NC(=O)[C@H](Cc2ccc(I)cc2)NC1=O (cyclo(L[Phe(4-I)]L[Hica(2S)]V))
- IC50 [6]: 11.3 µg/mL (≈ 15.9 µM)

SMILES: CC(C)C[C@@H]1NC(=O)[C@H](Cc2ccc(Br)cc2)NC(=O)[C@H](CC(C)C)NC(=O)[C@H](C(C)C)NC(=O)[C@H](CC(C)C)NC1=O (cyclo([Phe(4-Br)]LLVL))
- inhibition of growth at 20 µg/mL [3]: 74.3%
- inhibition of growth at 20 µg/mL [4]: 80.2%
- inhibition of growth at 20 µg/mL [5]: 89.3%
- IC50 [6]: 0.58 µg/mL (≈ 0.873 µM)
